In the NIST ThermoML archive (doi:10.1016/j.tca.2012.09.040):
± gives the expanded uncertainty stated by the source.

Test: of the first substance listed, at infinite dilution; xn = mol fraction of the nth substance listed
Settings: 100 kPa, Liquid, isoperibol

Row | SMILES | partial molar enthalpy (298.15 K, x1 = 0) | partial molar enthalpy (318.15 K, x1 = 0) | partial molar enthalpy (298.15 K, x2 = 1) | partial molar enthalpy (318.15 K, x2 = 1)
1 | CN(C)C=O [dimethylformamide] + CCCCCCCCO | 1.35 ± 0.0263 kcal/mol | 1.22 ± 0.0239 kcal/mol |  | 
2 | CCCCCCCCO [octan-1-ol] + CN(C)C=O |  |  | 1.55 ± 0.0311 kcal/mol | 1.52 ± 0.0311 kcal/mol
